One assay deals with T1, iKLK14 (Homo sapiens, UniProt Q9P0G3).
T1 construct: made in house
As to the kind of experiment: Inhibitor kinetics: KLK14 amidolytic activity. The format is biochemical.

Another assay deals with T2, bovine β-trypsin (Bos taurus, UniProt P00760).
T2 construct: bovine β-trypsin (20 ng); purchased Sigma Chemicals
T2 sequence (P00760 24-246): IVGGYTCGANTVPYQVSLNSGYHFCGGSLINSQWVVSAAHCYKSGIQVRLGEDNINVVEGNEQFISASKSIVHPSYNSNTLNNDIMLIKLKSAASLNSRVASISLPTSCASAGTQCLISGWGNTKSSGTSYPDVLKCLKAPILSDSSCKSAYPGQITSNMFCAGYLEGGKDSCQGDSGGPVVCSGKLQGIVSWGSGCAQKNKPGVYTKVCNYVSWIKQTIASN
As to the kind of experiment: Inhibitor kinetics: trypsin amidolytic activity. Conditions: trypsin; read-out: IC50. The format is biochemical. As to the method:
(§1) All enzymes and substrates were obtained from Sigma Chemicals if not otherwise specified. […] The release of pNa moiety was monitored as described above for 7 minutes with each point being the average of three independent triplicate reactions. IC50 was determined using the Prism 5 software suite (GraphPad software Inc.).

Another assay addresses T3, bovine α-chymotrypsin (Bos taurus, UniProt P00766).
T3 construct: purchased Sigma Chemicals
As to the kind of experiment: Inhibitor kinetics: α-chymotrypsin amidolytic activity. The class given is biochemical. The note with it: substrate W-pNA (0.2 mM). How it is done:
as §1

In a further assay the target is T4, bovine plasminogen (Bos taurus, UniProt P06868).
T4 construct: purchased Sigma Chemicals; host or cells: bovine plasma
T4 sequence (P06868 27-812 limits assumed): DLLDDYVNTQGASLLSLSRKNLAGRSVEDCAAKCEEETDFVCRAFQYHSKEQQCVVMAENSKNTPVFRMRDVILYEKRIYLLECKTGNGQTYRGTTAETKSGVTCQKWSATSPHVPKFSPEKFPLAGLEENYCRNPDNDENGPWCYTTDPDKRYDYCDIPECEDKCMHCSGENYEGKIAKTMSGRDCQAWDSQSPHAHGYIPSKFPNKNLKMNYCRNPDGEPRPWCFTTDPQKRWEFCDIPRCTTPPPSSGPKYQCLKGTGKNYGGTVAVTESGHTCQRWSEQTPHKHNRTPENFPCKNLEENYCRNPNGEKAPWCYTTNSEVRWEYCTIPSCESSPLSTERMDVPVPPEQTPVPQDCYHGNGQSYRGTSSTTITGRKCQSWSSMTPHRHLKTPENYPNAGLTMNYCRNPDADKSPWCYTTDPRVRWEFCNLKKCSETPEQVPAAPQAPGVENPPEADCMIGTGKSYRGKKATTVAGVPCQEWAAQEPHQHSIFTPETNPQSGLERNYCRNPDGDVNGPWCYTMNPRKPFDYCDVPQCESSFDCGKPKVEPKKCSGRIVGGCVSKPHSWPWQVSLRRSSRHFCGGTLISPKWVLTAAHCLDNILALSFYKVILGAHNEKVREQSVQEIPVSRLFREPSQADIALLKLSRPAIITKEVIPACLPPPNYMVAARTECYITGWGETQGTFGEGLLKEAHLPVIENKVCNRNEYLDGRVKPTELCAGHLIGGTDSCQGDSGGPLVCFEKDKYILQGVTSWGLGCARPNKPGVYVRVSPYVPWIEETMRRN
Put plainly: Inhibitor kinetics: plasminogen amidolytic activity. The class given is biochemical. Conditions: substrate L-pNA, BAPNA (0.2 mM). How it is done: as §1

The target in another assay is T5, trypsin (Bos taurus, UniProt P00760).
T5 construct: purchased Sigma Chemicals
T5 sequence (P00760 18-246 limits assumed): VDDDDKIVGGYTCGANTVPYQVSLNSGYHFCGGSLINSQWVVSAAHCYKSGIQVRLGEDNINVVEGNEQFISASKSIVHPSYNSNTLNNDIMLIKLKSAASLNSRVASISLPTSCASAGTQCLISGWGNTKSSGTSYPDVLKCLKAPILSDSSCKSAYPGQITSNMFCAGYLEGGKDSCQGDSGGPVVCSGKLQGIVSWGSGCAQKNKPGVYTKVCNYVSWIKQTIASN
Put plainly: Protein proteolysis: fibrinogen digestion by trypsin (SDS-PAGE). The class given is biochemical, bovine. The note with it: up to a concentration of 2 μM. As to the method: (§2) Fibrinogen was solubilised in assay buffer to a final concentration of 1 mg/ml and digested with KLK4 (+/−inhibitor) over a period of 90 minutes at 37° C. Typically assays consisted of 5 μM protein substrate and 2.5 nM KLK4 protein or 1 nM trypsin made up to a final volume of 8 μl with assay buffer. Proteolysis was initiated by addition of KLK4 and terminated by addition of SDS PAGE sample buffer and heat denaturation at 100° C. for 5 minutes. Hydrolysis products were resolved on 10% SDS PAGE gels and compared with incubations terminated immediately after initiation (time 0), and substrate proteins incubated in assay buffer for 90 minutes in the absence of KLK4 or 4-16 mins with trypsin.

In a further assay the target is KLK2 (Homo sapiens, UniProt P20151). As to the kind of experiment: Protein proteolysis: fibrinogen digestion by KLK2. The note with it: up to a concentration of 2 μM. The class given is biochemical.
Sequence of KLK2 (P20151 25-261): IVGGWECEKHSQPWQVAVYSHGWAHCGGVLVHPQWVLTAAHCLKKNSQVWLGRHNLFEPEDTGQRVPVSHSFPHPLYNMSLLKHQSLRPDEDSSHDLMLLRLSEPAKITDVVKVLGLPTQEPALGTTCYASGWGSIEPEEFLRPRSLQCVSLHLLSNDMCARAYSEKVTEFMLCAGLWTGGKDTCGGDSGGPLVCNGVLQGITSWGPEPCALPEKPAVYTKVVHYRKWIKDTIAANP
Another assay has as its target KLK5 (Homo sapiens, UniProt Q9Y337). As to the kind of experiment: Protein proteolysis: fibrinogen digestion by KLK5. The format is biochemical. Conditions: up to a concentration of 2 μM.
Another assay deals with bovine β trypsin. Put plainly: Trypsin stimulated calcium release in LMF stably expressing human PAR-2. The format is cell-based. Conditions: 1 μM SFTI-FCQR, trypsin 10 nM. How it is done: Lung murine fibroblasts (LMF) from Par-1 null mice stably expressing human PAR-2 were grown to 80% confluence as previously described, washed with PBS, detached nonenzymatically, resuspended (4×10^6 cells/ml) in extracellular medium (121 mM NaCl, 5.4 mM KCl, 0.8 mM MgCl2, 1.8 mM CaCl2, 5.5 mM glucose, 25 mM HEPES (pH 7.4)) containing 0.2% (w/v) bovine serum albumin (Sigma) and then loaded with the fluorescence indicator Fura-2 acetoxymethyl ester (1.0 μM; Invitrogen) at room temperature for 60 min. Cells were then pelleted followed by resuspension in extracellular medium (without bovine serum albumin) at a concentration of 2×10^6 cells/ml for fluorescence measurements. The ratio of fluorescence at 510 nm after excitation at 340 and 380 nm was monitored (Polarstar Optima fluorescent plate reader) during treatment with bovine β trypsin (Sigma Chemicals), PAR-2 activating peptide SLIGKV (AusPep) and iKLK4 with or without SFTI-FCQR.

Assay [1] relates to LNCaP prostate cancer cells. Put plainly: Primary tumour growth of LNCaP cells in nude mice (luciferase imaging). The note with it: 3×i.v. doses of 0.2 mg/kg, when tumour specific growth rate was less than 2%/day. The format is in vivo. How it is done:
Nude mice were injected with 1.5×10^6 LNCaP prostate cancer cells stably expressing an exogenous luciferase reporter gene and imaged over a period of 56 days. Tumour growth was measured by injecting mice with […] (a luminescent substrate for luciferase) and the resulting light emissions were quantified using a xenogen in vivo imaging system.

The next assay has as its target KLK4 (Homo sapiens, UniProt Q9Y5K2). As to the kind of experiment: Protein proteolysis: fibrinogen digestion by KLK4 (SDS-PAGE). The format is biochemical. Conditions: 2.5 nM KLK4, SDS-PAGE. On the set-up: pro-region of PSA (KLK3), replacing the native KLK4 pro-region (only if the E. coli preparation was used) (N, cleaved yes); made in house. As to the method: as §2

The structures appear in SMILES notation. “Also recorded” adds a separate entry of the source. Where two headings read alike, the source gives them in different places. Bridge positions count the residues as written; N and C are the ends. Peptide text beside a SMILES is read from it. Where only a bound is given, the exact number is not on record here.

Usually IC50 stands for the concentration that inhibits the measured activity by half.

Sequence of KLK5 (Q9Y337 23-293): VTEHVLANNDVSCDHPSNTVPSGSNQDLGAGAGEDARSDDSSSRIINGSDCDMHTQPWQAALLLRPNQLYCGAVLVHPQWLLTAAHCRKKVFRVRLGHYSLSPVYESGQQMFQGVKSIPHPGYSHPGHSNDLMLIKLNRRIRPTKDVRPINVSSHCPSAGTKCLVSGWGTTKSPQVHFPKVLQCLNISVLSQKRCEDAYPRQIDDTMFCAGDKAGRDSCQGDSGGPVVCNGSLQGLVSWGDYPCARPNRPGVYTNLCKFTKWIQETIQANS
T1 sequence (Q9P0G3 41-267): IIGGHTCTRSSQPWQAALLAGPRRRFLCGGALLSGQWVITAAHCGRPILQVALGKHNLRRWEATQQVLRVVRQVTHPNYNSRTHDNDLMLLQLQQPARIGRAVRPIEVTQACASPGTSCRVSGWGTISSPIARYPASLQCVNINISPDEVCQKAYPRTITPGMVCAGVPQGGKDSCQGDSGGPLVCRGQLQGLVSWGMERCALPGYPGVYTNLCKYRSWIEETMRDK
Sequence of KLK4 (Q9Y5K2 31-254): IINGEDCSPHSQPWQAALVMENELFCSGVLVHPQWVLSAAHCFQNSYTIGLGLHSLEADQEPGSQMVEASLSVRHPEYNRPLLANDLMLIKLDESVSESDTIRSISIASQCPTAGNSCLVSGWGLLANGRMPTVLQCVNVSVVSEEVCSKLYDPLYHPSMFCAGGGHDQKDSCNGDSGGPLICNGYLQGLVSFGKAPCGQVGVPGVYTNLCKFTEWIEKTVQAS

For `CC[C@H](C)[C@@H]1NC(=O)[C@@H]2CCCN2C(=O)[C@@H]2CCCN2C(=O)[C@H]([C@@H](C)CC)NC(=O)[C@H](CO)NC(=O)[C@H](CCCNC(=N)N)NC(=O)[C@H](CCC(N)=O)NC(=O)[C@@H]2CSSC[C@H](NC1=O)C(=O)N[C@@H](Cc1ccccc1)C(=O)N1CCC[C@H]1C(=O)N[C@@H](CC(=O)O)C(=O)NCC(=O)N[C@@H](Cc1ccccc1)C(=O)N2` [SFTI-FCQR] (cyclo(GFCQRSIPPICFPD); disulfide 3-11), the IC50 at iKLK14 was 1510 ± 37.1 nM; on bovine β-trypsin it was 4.06 ± 1.09 µM; against bovine α-chymotrypsin, “did not inhibit”; at bovine α-chymotrypsin (read-out: IC50), over 10 µM; against bovine plasminogen, “did not inhibit”; at bovine plasminogen (read-out: IC50), over 10 µM. Also, on trypsin, the “inhibition of tryptic digestion of fibrinogen” value is on record as “no inhibition”. In addition, the “inhibition of KLK2 digestion of fibrinogen” value against KLK2 is “no inhibition”. For the same molecule, the “inhibition of KLK5 digestion of fibrinogen” value against KLK5 was “no inhibition”. Moreover, in the assay with bovine β trypsin, the “effect on trypsin stimulated calcium release” value is given as “permissive for calcium release; also recorded: no effect; also recorded: increased intracellular Ca^2+ ion concentration”. Further, the “tumour growth rate in comparison to control” value in assay [1] is given as “arrested tumour growth rate”. For the same molecule, at KLK4, the “concentration giving complete inhibition of fibrinogen proteolysis by KLK4” value was found to be 250 nM.

Source of the values: US20110172163A1, “Novel Protease Inhibitors” (QUEENSLAND UNIVERSITY OF TECHNOLOGY, priority 2008, published 2011).
